These results are taken from patent US6773702B2, “Use of combretastatin A4 and its prodrugs as an immune enhancing therapy” (OXiGENE, Inc., priority 2000, dated 2004).

The subject of data set [1] is spleen cells of H1D2-WT tumor-bearing rat. Description: In vitro proliferative response of spleen cells from a tumor-bearing rat treated with CA4 plus immunotherapy (FIG. 4). The class given is in vivo. The following applies: for T cell proliferative response: CA4 2 mg/kg + active immunotherapy. The protocol: FIG. 4 illustrates the enhanced in vitro immune proliferative response (cpm) of spleen cells isolated from (H1D2-WT) a tumor-bearing rat previously treated in vivo with a combination of active immunomodulatory therapy and CA4 (2 mg/kg, 6 days a week). Spleen cells were tested 9 weeks after tumor inoculation when tumor sizes was 0.9 cm^3. LO signifies spleen cells containing adherent macrophages, whereas L1 represents the same population depleted of adherent macrophages. A subset of each cell sample was treated with either medium (Med) or L-NAME (1.5 mg/ml).
While the anti-tumor properties of CA4 and CA4P are very different, the present invention embraces the discovery that a low dose of either compound is capable of enhancing the immune responsiveness of a tumor host. FIG. 4 illustrates the in vitro immune proliferation of spleen cells isolated from a tumor-bearing rat previously subjected to treatment with a combination of CA4 (2 mg/kg) and active immunotherapy. The rat was killed 9 weeks after initiation of intrahepatic tumor growth, at which point the tumor had grown to a size of 0.9 cm^3. Control rats receiving immunotherapy alone were euthanized 5 weeks earlier due to the development of large tumor burdens (>5 cm3).
A tumor-bearing rat (H1D1-WT) was treated in vivo with weekly immunizations of IL-18 transfected tumor cells (H1D1-IL-18), in addition to CA4 treatment (2 mg/kg) 6 days a week. Due to the inherent insolubility of CA4, […] (0.9 cm^3 tumor) following […] of growth, at which point the untreated control rats were all dead with large tumor burdens (>5 cm^3) and would not be expected to show an immune response at such a late stage. Both unseparated spleen cells (L0) and nonadherent spleen cells (L1), depleted of most macrophages by plastic adherence (as in Example 2), were tested for a proliferative response to H1D2-IL18 tumor stimulator cells in the absence or presence of the NO-synthase inhibitor L-NAME.

Data set [2] concerns BN7005-H1D2 colon cancer cells. Description: Comparison of CA4 and CA4P on BN7005-H1D2 tumor growth, alone or with vaccination (FIG. 5). The data set is classed as in vivo, rat. The method, then:
FIGS. 5A AND 5B illustrate a comparison of the therapeutic effect of Combretastatin A4 and Combretastatin A4 Prodrug (2 mg/kg) on tumor growth (BN7005-H1D2) in vivo as a sole therapy or in combination with therapeutic vaccination (IL-18 tumor transfectants). Results are represented as mean tumor volume (FIG. 5A) or as median tumor volume (FIG. 5B) 31 days after tumor initiation.
A comparison was also made of relative effect of CA4 and CA4P administration in vivo with regard to tumor inhibitory effects when used as sole therapy and when combined with immunomodulatory gene therapy. […] A subset of these animals were subjected to regular vaccinations autologous IL-18 and IL-12-transfected tumor cells, respectively.
A comparison has been made of the effect of CA4 and CA4 prodrug with regard to tumor inhibitory effects when used as sole therapy and when combined with immunomodulatory gene therapy. As represented in FIG. 5, wild-type (BN7005-H1D2) colon cancer cells were inoculated intrahepatically and treatment with CA4 and CA4P began on day 7 (2 mg/kg 6 days a week), when the tumors were macroscopically visible. On day 9, 16 and 23, vaccinations occurred using BN7005-H1D2 cells transfected with ILI8 and IL-12, respectively.

For data set [3] the following is noted: cited from earlier work.
Data set [4] has as its system colon carcinoma H1D2-WT cells. Description: Intrahepatic growth of colon carcinoma H1D2-WT, tumor volume after 4 weeks (Table 2). The following applies: no CA4-P; L-NAME gavage; with immunization. The class given is in vivo, rat. The method, then:
Table 2 is a summary of intrahepatic growth of colon carcinoma H1D2-WT cells treated with low dose CA4P alone or in combination with immunomodulatory gene therapy, and with or without additional inhibitor. Tumor growth was initiated by inoculation beneath the liver capsule with 1×10^5 in vitro cultured BN7005-H1D2 wild type cells suspended in 50 μl RPMI medium. Drug administration (CA4P, L-NAME, Indomethacin) was initiated after 7-8 days when the tumor was macroscopically visible. CA4P was given intraperitoneally, 5 days a week. L-NAME was given by gavage twice a week on the day of immunization and the day after. Indomethacin was given by gavage 48 h after vaccination at a dose of 0.33 mg/kg. Immunization was performed by intraperitoneal administration on day 10 and day 17 using BN7005-H1D2 cells transfected with IL-18 or a mixture of IL-18 and IL-12 transfectants (2-3×10^6 viable cells per rat).
Wild-type (BN7005-H1D2) colon cancer cells (1×10^5 cells) were inoculated intrahepatically and CA4P drug treatment (2 and 5 mg/kg) began daily when the tumors were macroscopically visible. On day 10 and 17, vaccinations were administered intraperitoneally using […] cells transfected with IL-18 transfected cells or mixtures of IL-18 and IL-12 transfected cells (2-3×10^6 viable cells per rat). L-NAME and Indomethacin were also administered by gavage 48 h after vaccination at a dose of 0.33 mg/kg.

Data set [5] relates to BN7005-H1D2 colon cancer cells. Description: Tumor growth with IL-18/IFN-γ vaccination plus CA4P and/or L-NAME (FIG. 6). The following applies: L-NAME by gavage 48 mg/rat + vaccination with IL-18/IFN-γ producing tumor cells. The data set is classed as in vivo, rat. The protocol:
FIG. 6 illustrates enhancement of the therapeutic effect of vaccination with IL-18/IFN-γ producing tumor transfectant […] cells by concurrent treatment with low dose combretastatin-A4 prodrug and/or L-NAME. Mean tumor volume±SEM is indicated. Significance of differences compared to the PBS control was evaluated by the Student's t test.
Four groups of 6 rats each were inoculated intrahepatically with 1×10^5 wild type colon cancer cells (BN7005-H1D2) on day 0. Drug treatment was initiated on day 7, when the tumor was macroscopically visible as a small nodule, and was repeated 5 days a week. CA4-P was administered i.p. at a dose of 5 mg/kg and L-NAME by gavage at a dose of 48 mg/rat. Vaccination was given twice i.p. on day 10.and 17 with 2×10^6 tumor cells producing IL-18 and IFN-γ, respectively. No drug treatment was given on the day of vaccination and the day after. On day 28 all animals were laparotomized and tumor diameters measured (the longest diameter (a) and the one perpendicular to the first (b) and tumor volume calculated according to the formula 0.4×a×b×b.
Referring to FIG. 6, wild-type (BN7005-H1D2) colon cancer cells were inoculated intrahepatically and combretastatin A4 prodrug treatment began daily on day 7 when the tumors were macroscopically visible. L-NAME, a well known NO inhibitor and effective antitumor agent, was also administered daily. On day 10 and 17 vaccination occurred using BN7005-H1D2 cells transfected with IL-18/IFN-gamma. […] One likely explanation was that both L-NAME and Combretastatin A4 were doing the same thing; i.e. inhibiting the production of proinflammatory cytokines that cause immune suppression.

For `COc1ccc(/C=C\c2cc(OC)c(OC)c(OC)c2)cc1O` [CA4, Combretastatin A4], the Tumor size in data set [1] (9 weeks after initiation of intrahepatic tumor growth, CA4 2 mg/kg + active immunotherapy (controls >5 cm3)) amounted to 0.9 cm^3. For the same compound, the “T cell proliferative response” value in data set [1] (non-adherent T cells (L1), 9 weeks) is 86,000 cpm; in data set [1] (unseparated spleen cells (L0) in the presence of L-NAME in vitro) it was 44,000 cpm; in data set [1] (unseparated spleen cells (L0), 9 weeks after tumor initiation), 9000 cpm. The Tumor inhibitory effect result is “no significant effect as sole therapy” in data set [2] (2 mg/kg 6 days a week as sole therapy); “significant tumor inhibitory effects” in data set [2] (2 mg/kg combined with vaccination (IL-18 and IL-12 transfected tumor cells)). Also, the Solubility in water entry in data set [3] was “very limited”.

As to `COC(=O)[C@@H](N)CCCNC(=N)N[N+](=O)[O-]` [L-NAME, reference compound], in data set [4], the “Tumor volume after 4 weeks, Mean” value is 1285 mm^3 and the “Tumor volume after 4 weeks, Median” value is given as 879 mm^3. The “Enhancement of immune stimulated gene therapy” value in data set [5] is given as “effective enhancers of immune stimulated gene therapy”.
